Measurements as given in PubChem BioAssay AID1159536 (DiRusso Lab, Biochemistry Department, University of Nebraska, 2015).
Records with an inconclusive call do not appear. Calls of active or inactive are those of the source. How the calls were made is not given here.

system: not listed separately; assay: compounds raising TAG storage in Chlamydomonas – qHTS, Chlamydomonas reinhardtii, dose response (AID 1159536); details: Chlamydomonas reinhardtii, Nile Red lipid fluorescence, 72 h; at 30 µM (top of the series)

SMILES | fold change vs untreated, higher = more lipid
O=C(Nc1ccccc1C(=O)NCc1ccccc1)c1ccc([N+](=O)[O-])cc1 | 2.49 (inactive)
O=C(NC1CCN(Cc2ccccc2)CC1)c1ccc(Cl)cc1Cl | 12.2
COc1cc(NC(=O)C(Cl)Cl)c(OC)cc1Cl | 1.42 (inactive)
C=CCNC(=O)C(C)N(c1ccc(OCC)cc1)S(C)(=O)=O (stereo unspecified) | 1.69 (inactive)
Cc1ccc(Cn2cnc3c(cnn3-c3ccccc3)c2=O)c(C)c1 | 3 (inactive)
Cc1cc(Br)ccc1OCC(=O)NCc1ccc2c(c1)OCO2 | 1.4 (inactive)
COc1cccc(CN2CCN(C(=O)c3cc(OC)c(OC)c(OC)c3)CC2)c1OC | 1.75 (inactive)
CCC1CCCCN1C(=O)c1ccc(Cl)cc1[N+](=O)[O-] (stereo unspecified) | 1.87 (inactive)
O=C(O)C1CCN(C(=O)c2ccc(F)cc2)CC1 | 1.24 (inactive)
COc1ccc(S(=O)(=O)N(CC(=O)NC(C)C)c2cc(C)cc(C)c2)cc1OC | 1.07 (inactive)
Cc1sc(NC(=O)c2cccs2)c(C(=O)O)c1C | 1.38 (inactive)
COc1ccccc1Cn1c(C(C)O)nc2ccccc21 (stereo unspecified) | 0.95 (inactive)
Cc1c(C(=O)Nc2ccccc2C(=O)NCc2ccccc2)cccc1[N+](=O)[O-] | 2.77 (inactive)
COc1cc(-c2ccc(NC(=O)c3ccco3)c(OC)c2)ccc1NC(=O)c1ccco1 | 1.4 (inactive)
CC(C)(C)c1ccc(OCCCCN2CCOCC2)cc1 | 3.88
Cc1ccc(N2CCN(CCc3ccccc3)CC2)cc1 | 8.09
CCN1CCN(C2CCC(C(C)(C)C)CC2)CC1 (stereo unspecified) | 2.66 (inactive)
Cc1ccc(CN2CCC(C(=O)NCc3ccccc3Cl)CC2)cc1 | 15.2
Cc1ccc(OCCCCN2CCCC2)c(C)c1 | 6.28
Cc1cc(Cl)c(OCCn2ccnc2)c(Br)c1 | 5.38
CC(=O)Nc1ccc(OCC(=O)Nc2cc(Cl)cc(Cl)c2)cc1 | 2.48 (inactive)
Fc1ccc(N2CCN(CCc3ccccc3)CC2)cc1 | 9.42
Cc1c(N/C=C/C(=O)c2cccs2)c(=O)n(-c2ccccc2)n1C | 1.42 (inactive)

system: Chlamydomonas reinhardtii, Nile Red lipid fluorescence, 72 h; assay: as above; details: not given

SMILES | EC50
COc1ccccc1C(=O)N1CCN(C(=O)C(c2ccccc2)c2ccccc2)CC1 | 5.62 µM (inactive)
Fc1ccc(N2CCN(Cc3ccsc3)CC2)cc1 | 8.16 µM
Nc1ccc(F)cc1C(=O)c1ccccc1 | 7.05 µM
CCOc1ccc(CN2CCN(c3ccc(F)cc3)CC2)cc1 | 0.241 µM
Clc1ccc(CN2CCCCCC2)cc1 | 2.05 µM
Clc1ccc(N2CCN(Cc3ccc4c(c3)OCO4)CC2)cc1 | 1.32 µM
O=[N+]([O-])c1ccc(CNC2CCCCCC2)cc1 | 1.88 µM
CN1CCN(CCOc2ccc(C(C)(C)c3ccccc3)cc2)CC1 | 2.37 µM (inactive)
COc1ccc(CN2CCN(c3ncnc4sc5c(c34)CCCC5)CC2)cc1 | 4.83 µM
C(=C\c1ccccc1)/CN1CCN(C2CCc3ccccc3C2)CC1 (stereo unspecified) | 9.92 µM
O=[N+]([O-])c1ccc(CNC2CCCC2)cc1 | 0.645 µM
CN(CC(O)COc1ccc(Br)cc1)C1CCCCC1 (stereo unspecified) | 6.83 µM
O=[N+]([O-])c1ccc(C(O)CN2CCN(Cc3ccccc3)CC2)cc1 (stereo unspecified) | 12.6 µM
Cn1c(SCC(=O)NCc2ccccc2)nnc1-c1ccc(C(C)(C)C)cc1 | 7.31 µM (inactive)
O=[N+]([O-])c1ccc(CN2CCN(Cc3cc(Br)ccc3O)CC2)cc1 | 2.47 µM
CC1CCCN(C2CCN(S(=O)(=O)c3ccc(F)cc3)CC2)C1 (stereo unspecified) | 13.1 µM
OC(COc1ccccc1Br)CN1CCCCC1 (stereo unspecified) | 7.57 µM
COc1ccc(CN(C)C2CCCCC2)c(C)c1C | 0.608 µM
Oc1ccc(CN2CCN(Cc3ccccc3)CC2)cc1 | 11.2 µM
Cc1cc(C(C)(C)C)ccc1OCCOCCN1CCN(C)CC1 | 0.566 µM (inactive)
Nn1c(SCC(=O)NC23CC4CC(CC(C4)C2)C3)nnc1-c1ccc(Cl)cc1Cl | 7.04 µM
O=C(Nc1ccc([N+](=O)[O-])cc1)c1cccc(Cl)c1Cl | 2.35 µM (inactive)

SMILES | EC50
Cc1ccc(C(=O)Nc2ccccc2C(=O)NC(C)C)cc1[N+](=O)[O-] | 0.635 µM (inactive)
Cc1ccc(C(=O)NC(C)C2CC3CCC2C3)s1 (stereo unspecified) | 15.3 µM (inactive)
Cc1ccc(OCCCCN2CCCCC2)c(C)c1 | 11.3 µM
Cc1ccc(C)c(N2CCN(C3CCCCCC3)CC2)c1 | 10 µM
Fc1ccccc1N1CCN(CC2CCCCC2)CC1 | 10.5 µM
O=C(c1ccccc1)c1ccc(OCCCCn2ccnc2)cc1 | 1.33 µM (inactive)
O=[N+]([O-])c1cccc(CNC2CCCCCC2)c1 | 1.1 µM
C/C(=C\c1ccccc1)CN1CCN(C)CC1 | 1.01 µM
CC(CCc1ccc(O)cc1)NC1C2CC3CC(C2)CC1C3 (stereo unspecified) | 2.74 µM
CCN(Cc1ccccc1)C(=O)C1CCN(Cc2ccccc2F)CC1 | 1.32 µM
C=CCn1c(SCC(=O)NCCc2ccccc2)nnc1-c1ccc(Cl)cc1Cl | 4.05 µM
COc1cc(C)c(CN2CCN(Cc3ccc4c(c3)OCO4)CC2)cc1C | 2.04 µM
CCN(CC)CC#Cc1ccc(C#CCN(CC)CC)cc1 | 4.15 µM
C=CCc1cc(Cl)ccc1OCCN1CCN(C)CC1 | 14.1 µM
COc1cc(C)nc(NCc2ccccc2)n1 | 1.33 µM
C=CCN1C(=O)C(=O)c2cc(Br)ccc21 | 5.89 µM
Cc1ccc(CN(C)C2CCN(C)CC2)s1 | 10.2 µM
Clc1ccc(OCCOCCN2CCCC2)c(Br)c1 | 2.6 µM
Cc1ccc(CN2CCN(c3ccc(F)cc3)CC2)cc1 | 0.00439 µM
O=C(Nc1cccnc1)c1ccc(S(=O)(=O)c2ccc(Cl)cc2)cc1 | 6.72 µM (inactive)
CN1CCCN(CC2=CC[C@H]3C[C@@H]2C3(C)C)CC1 | 10.1 µM
